pEC50: −log10 of the molar value.
Assays:
[1] = test system: Human immunodeficiency virus 2; assay: Antiviral activity against HIV2 ROD infected in human MT4 cells assessed as inhibition of virus-induced cytopathicity measured 5 days post viral infection by MTT assay; type: functional, organism-based; settings: Human immunodeficiency virus 2, ISOLATE ROD, MT4, 120 h
[2] = Cytotoxicity against human MT4 cells by MTT assay; type: cell-based
[3] = test system: Human immunodeficiency virus 1; assay: Antiviral activity against HIV1 3B infected in human MT4 cells assessed as inhibition of virus-induced cytopathicity measured 5 days post viral infection by MTT assay; type: functional, organism-based; settings: Human immunodeficiency virus 1, 3B, MT4, 120 h
[4] = Selectivity index, ratio CC50 for human MT4 cells to EC50 for HIV 1 3B
[5] = test system: Human immunodeficiency virus 1; assay: Antiviral activity against HIV1 RES056 harboring RT K103N,Y181C double mutant infected in human MT4 cells assessed as inhibition of virus-induced cytopathicity measured 5 days post viral infection by MTT assay; type: functional, organism-based; settings: Human immunodeficiency virus 1, RES056, MT4, 120 h

| SMILES | pEC50 [1] | CC50 [2] [µM] | pEC50 [3] | selectivity ratio ([4]; MT4 cells) | pEC50 [5] | selectivity ratio ([4]; mt4) |
| --- | --- | --- | --- | --- | --- | --- |
| N#Cc1ccc(Nc2nccc(C(Cl)c3ccccc3)n2)cc1 (stereo not given) | < 4.42 | 37.8 | 7.80 | 2340 | < 4.42 |  |
| Cc1ccc(C(Cl)c2ccnc(Nc3ccc(C#N)cc3)n2)cc1 (stereo not given) | < 4.30 | 49.7 | 7.16 | 713 | < 4.30 |  |
| COc1ccc(C(Cl)c2ccnc(Nc3ccc(C#N)cc3)n2)cc1 (stereo not given) | < 4.47 | ≥ 33.6 | 6.66 |  | < 4.47 |  |
| CC(C)(C)c1ccc(C(Cl)c2ccnc(Nc3ccc(C#N)cc3)n2)cc1 (stereo not given) | < 4.48 | 32.9 | 6.77 | 193 | < 4.48 |  |
| N#Cc1ccc(Nc2nccc(C(Cl)c3cccc(F)c3)n2)cc1 (stereo not given) | < 4.43 | 36.8 | 5.87 | 27 | < 4.43 |  |
| N#Cc1ccc(Nc2nccc(C(Cl)c3cccc(Cl)c3)n2)cc1 (stereo not given) | < 4.61 | 24.3 | 8.30 | 5160 | < 4.61 |  |
| N#Cc1ccc(Nc2nccc(C(Cl)c3cccc(Br)c3)n2)cc1 (stereo not given) | < 4.52 | 30.4 | 8.05 | 3110 | 5.09 |  |
| N#Cc1ccc(Nc2nccc(C(Cl)c3ccc(F)cc3)n2)cc1 (stereo not given) | < 4.45 | 35.4 | 5.74 | 19 | < 4.45 |  |
| N#Cc1ccc(Nc2nccc(C(Cl)c3ccc(Cl)cc3)n2)cc1 (stereo not given) | < 4.44 | 36.1 | 7.17 | 545 | < 4.44 |  |
| N#Cc1ccc(Nc2nccc(C(Cl)c3ccc(Br)cc3)n2)cc1 (stereo not given) | < 4.49 | 32.5 | 7.42 | 875 | < 4.49 |  |
| N#Cc1ccc(Nc2nccc(C(Cl)c3cccc4ccccc34)n2)cc1 (stereo not given) | < 4.95 | 11.3 | 6.69 | 56 | < 4.95 |  |
| Cc1cc(C(Cl)c2ccc(C(C)(C)C)cc2)nc(Nc2ccc(C#N)cc2)n1 (stereo not given) | < 4.52 | 30.3 | 6.76 | 173 | < 4.52 |  |
| Cc1cc(C(Cl)c2ccc(F)cc2)nc(Nc2ccc(C#N)cc2)n1 (stereo not given) | < 4.51 | 31.1 | 5.23 | 5 | < 4.51 |  |
| Cc1cc(C(Cl)c2ccc(Br)cc2)nc(Nc2ccc(C#N)cc2)n1 (stereo not given) | < 4.50 | 31.9 | 6.36 | 75 | < 4.50 |  |
| Cc1cnc(Nc2ccc(C#N)cc2)nc1C(Cl)c1ccc(C(C)(C)C)cc1 (stereo not given) | < 4.54 | 28.7 | 5.75 | 16 | < 4.54 |  |
| Cc1cnc(Nc2ccc(C#N)cc2)nc1C(Cl)c1ccc(F)cc1 (stereo not given) | < 4.51 | 30.8 | 5.10 | 4 | < 4.51 |  |
| Cc1cnc(Nc2ccc(C#N)cc2)nc1C(Cl)c1ccc(Br)cc1 (stereo not given) | < 4.99 | 10.3 | 6.96 | 95 | < 4.99 |  |
| N#Cc1ccc(Nc2nccc(C(Br)c3ccccc3)n2)cc1 (stereo not given) | < 4.16 | 69 | 6.70 | 348 | < 4.16 |  |
| Cc1ccc(C(Br)c2ccnc(Nc3ccc(C#N)cc3)n2)cc1 (stereo not given) | < 4.50 | 31.5 | 7.33 | 672 | < 4.50 |  |
| CC(C)Nc1cccnc1N1CCN(C(=O)c2cc3cc(NS(C)(=O)=O)ccc3[nH]2)CC1 [DELAVIRDINE] |  | > 43.8 | 7.07 | > 511 | < 4.36 |  |
| O=C1Nc2ccc(Cl)cc2[C@@](C#CC2CC2)(C(F)(F)F)O1 [EFAVIRENZ] |  | > 6.3 |  |  | 6.57 | > 1140 |
| Cc1cc(C#N)cc(C)c1Oc1nc(Nc2ccc(C#N)cc2)nc(N)c1Br [ETRAVIRINE] | < 4.85 | 14.2 |  |  | 7.83 | 7380 |
| Nc1ccn([C@@H]2CS[C@H](CO)O2)c(=O)n1 [LAMIVUDINE] | 5.14 | > 87.2 | 5.61 |  |  | > 36 |
| Cc1ccnc2c1NC(=O)c1cccnc1N2C1CC1 [NEVIRAPINE] |  |  |  | > 163 | < 4.82 |  |
| Cc1cn([C@H]2C[C@H](N=[N+]=[N-])[C@@H](CO)O2)c(=O)[nH]c1=O [ZIDOVUDINE] | 8.30 | > 93.5 |  |  | 8.15 | > 17000 |

Source: ChEMBL document CHEMBL3286216, “Synthesis and biological evaluation of CHX-DAPYs as HIV-1 non-nucleoside reverse transcriptase inhibitors” (Bioorg Med Chem, 2014)
